Source: patent US11629171B2, “Beta-hairpin peptidomimetics” (POLYPHOR AG, priority 2017, dated 2023)
In brackets after ≈: the same amount, converted by molar mass. Where a SMILES comes first, the peptide text is derived from it. Bridges are numbered along the chain shown (N, C = ends). Roman numbers before positions name the chains, in order. [ ]: non-standard residue; d: D form. The star is where a group is joined. Thr(ol) = C[C@@H](O)[C@H](N)CO; Tle = CC(C)(C)[C@H](N)C(=O)O; Hiv = CC(C)[C@H](O)C(=O)O; dDab = NCC[C@@H](N)C(=O)O; hSer = N[C@@H](CCO)C(=O)O; NHCH(CH2OH)2 = OCC(CO)N*; Dab = NCC[C@H](N)C(=O)O; Dap = NC[C@H](N)C(=O)O; Propionyl = CCC(=O)*

Legend:
Type in all cases: cell-based
[1] = test system: Acinetobacter baumannii 872842; details: 872842
Outline: (§1)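 Peptides are tested in serial two-fold dilutions against about 10^6 CFU/mL in MH-II broth containing 0.002% P-80 (v/v, final). Plates incubate 18-20 h at 35° C, and the MIC is the lowest peptide level (μg/mL) showing no visible growth.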

[2] = test system: Pseudomonas aeruginosa ATCC 27853; details: ATCC 27853
Outline: as §1

[3] = test system: Klebsiella pneumoniae SSI #3010; details: SSI #3010
Outline: as §1

[4] = test system: Enterobacter cloacae 848840; details: 848840
Outline: as §1

[5] = test system: Escherichia coli ATCC 25922; details: ATCC 25922
Outline: as §1

[6] = test system: Klebsiella pneumoniae 968733; details: 968733
Outline: as §1

Escherichia coli 926415 = details: 926415
Outline: as §1

[7] = test system: Acinetobacter baumannii DSM 30008; details: DSM 30008
Outline: as §1

[8] = test system: human red blood cells (hRBC); assay: Hemolysis; details: red cells of human, 1 h, 200
Outline: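 Percent hemolysis relative to 2% Triton X-100 (100%) and PBS/10% water (0%), from blank-corrected OD540 of diluted supernatants. Peptides tested at 200 μg/mL against 20% (v/v) washed human erythrocytes, 1 h, 37° C, shaking at 300 rpm.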

SMILES | MIC [1] [µg/mL] | MIC [2] [µg/mL] | MIC [3] [µg/mL] | MIC [4] [µg/mL] | MIC [5] [µg/mL] | MIC [6] [µg/mL] | MIC (Escherichia coli 926415) [µg/mL] | MIC [7] [µg/mL] | Hemolysis at 200 μg/mL [8] [%]
CC(C)C[C@@H]1NC(=O)[C@@H](CC(C)C)NC(=O)[C@H](CCN)NC(=O)[C@@H](NC(=O)[C@H](CCN)NC(=O)[C@@H](NC(=O)[C@H](CCN)NC(=O)CC[C@@H]2NC(=O)[C@H](CCN)NC(=O)[C@H](Cc3ccc(O)cc3)NC(=O)[C@@H](NC(=O)[C@@H](O)C(C)C)CSSC[C@@H](C(=O)NC(CO)CO)NC(=O)[C@H](C(C)(C)C)NC(=O)[C@H](CO)NC(=O)[C@H](Cc3c[nH]c4ccccc34)NC(=O)[C@H](CCO)NC(=O)[C@@H](CCN)NC2=O)[C@@H](C)O)CCNC(=O)[C@H]([C@@H](C)O)NC(=O)[C@H](CCN)NC(=O)[C@H](CCN)NC1=O [Ex. 95] (I: H-[Hiv]CY[Dab]E[dDab][hSer]WS[Tle]C-{NHCH(CH2OH)2} / II: [Dab]T[Dab][Dab][Dab][dL]L[Dab][Dab]T; disulfide I:2-I:11; amide I:5-II:N; lactam II:4-II:C) | 0.125 (≈ 0.0524 µM) | 0.125 (≈ 0.0524 µM) | 0.125 (≈ 0.0524 µM) | 4 (≈ 1.68 µM) | 0.03125 (≈ 0.0131 µM) | 0.125 (≈ 0.0524 µM) | 0.125 (≈ 0.0524 µM) | 0.0625 (≈ 0.0262 µM) | <1
CC(=O)N[C@@H](Cc1ccc(O)cc1)C(=O)N[C@H]1CSSC[C@@H](C(=O)NC(CO)CO)NC(=O)[C@H](Cc2c[nH]c3ccccc23)NC(=O)[C@H](CO)NC(=O)[C@H](C(C)C)NC(=O)[C@H](CCO)NC(=O)[C@@H](CCN)NC(=O)[C@H](CCC(=O)N[C@@H](CCN)C(=O)N[C@H](C(=O)N[C@@H](CCN)C(=O)N[C@H]2CCNC(=O)[C@H]([C@@H](C)O)NC(=O)[C@H](CCN)NC(=O)[C@H](CCN)NC(=O)[C@H](CC(C)C)NC(=O)[C@@H](CC(C)C)NC(=O)[C@H](CCN)NC2=O)[C@@H](C)O)NC(=O)[C@H](CCN)NC(=O)[C@H](C(C)C)NC1=O [Ex. 98] (I: Ac-YCV[Dab]E[dDab][hSer]VSWC-{NHCH(CH2OH)2} / II: [Dab]T[Dab][Dab][Dab][dL]L[Dab][Dab]T; disulfide I:2-I:11; amide I:5-II:N; lactam II:4-II:C) | 2 (≈ 0.829 µM) | 0.25 (≈ 0.104 µM) | 0.25 (≈ 0.104 µM) | 2 (≈ 0.829 µM) | 0.125 (≈ 0.0518 µM) | 4 (≈ 1.66 µM) | 2 (≈ 0.829 µM) | 0.25 (≈ 0.104 µM) | <1
CC(C)C[C@@H]1NC(=O)[C@@H](CC(C)C)NC(=O)[C@H](CCN)NC(=O)[C@@H](NC(=O)[C@H](CCN)NC(=O)[C@H](CO)NC(=O)[C@H](CCN)NC(=O)CC[C@@H]2NC(=O)[C@H](CN)NC(=O)[C@H](Cc3ccc(O)cc3)NC(=O)[C@@H](NC(=O)[C@@H](O)C(C)C)CSSC[C@@H](C(=O)N[C@H](CO)[C@@H](C)O)NC(=O)[C@H](C(C)(C)C)NC(=O)[C@H](CO)NC(=O)[C@H](Cc3c[nH]c4ccccc34)NC(=O)[C@H]([C@@H](C)O)NC(=O)[C@@H](CCN)NC2=O)CCNC(=O)[C@H]([C@@H](C)O)NC(=O)[C@H](CCN)NC(=O)[C@H](CCN)NC1=O [Ex. 106] (I: H-[Hiv]CY[Dap]E[dDab]TWS[Tle]C[Thr(ol)] / II: [Dab]S[Dab][Dab][Dab][dL]L[Dab][Dab]T; disulfide I:2-I:11; amide I:5-II:N; lactam II:4-II:C) | 0.25 (≈ 0.105 µM) | 0.125 (≈ 0.0527 µM) | 0.125 (≈ 0.0527 µM) | 0.25 (≈ 0.105 µM) | 0.0625 (≈ 0.0263 µM) | 0.25 (≈ 0.105 µM) | 0.125 (≈ 0.0527 µM) | 0.0625 (≈ 0.0263 µM) | <1
CC(C)C[C@@H]1NC(=O)[C@@H](CC(C)C)NC(=O)[C@H](CCN)NC(=O)[C@@H](NC(=O)[C@H](CN)NC(=O)[C@@H](NC(=O)[C@H](CCN)NC(=O)CC[C@@H]2NC(=O)[C@H](CN)NC(=O)[C@H](Cc3ccc(O)cc3)NC(=O)[C@@H](NC(=O)[C@@H](O)C(C)C)CSSC[C@@H](C(=O)N[C@H](CO)[C@@H](C)O)NC(=O)[C@H](C(C)(C)C)NC(=O)[C@H](CO)NC(=O)[C@H](Cc3c[nH]c4ccccc34)NC(=O)[C@H](CCN)NC(=O)[C@@H](CCN)NC2=O)[C@@H](C)O)CCNC(=O)[C@H]([C@@H](C)O)NC(=O)[C@H](CCN)NC(=O)[C@H](CCN)NC1=O [Ex. 111] (I: H-[Hiv]CY[Dap]E[dDab][Dab]WS[Tle]C[Thr(ol)] / II: [Dab]T[Dap][Dab][Dab][dL]L[Dab][Dab]T; disulfide I:2-I:11; amide I:5-II:N; lactam II:4-II:C) | 0.0625 (≈ 0.0264 µM) | 0.25 (≈ 0.105 µM) | 0.125 (≈ 0.0527 µM) | 0.125 (≈ 0.0527 µM) | 0.125 (≈ 0.0527 µM) | 0.125 (≈ 0.0527 µM) | 0.0625 (≈ 0.0264 µM) | 0.03125 (≈ 0.0132 µM) | <1
CC(C)C[C@@H]1NC(=O)[C@@H](CC(C)C)NC(=O)[C@H](CCN)NC(=O)[C@@H](NC(=O)[C@H](CN)NC(=O)[C@@H](NC(=O)[C@H](CCN)NC(=O)CC[C@@H]2NC(=O)[C@H](CN)NC(=O)[C@H](Cc3ccc(O)cc3)NC(=O)[C@@H](NC(=O)[C@@H](O)C(C)C)CSSC[C@@H](C(=O)N[C@H](CO)[C@@H](C)O)NC(=O)[C@H](C(C)(C)C)NC(=O)[C@H](CO)NC(=O)[C@H](Cc3c[nH]c4ccccc34)NC(=O)[C@H](CCO)NC(=O)[C@@H](CCN)NC2=O)[C@@H](C)O)CCNC(=O)[C@H]([C@@H](C)O)NC(=O)[C@H](CCN)NC(=O)[C@H](CCN)NC1=O [Ex. 112] (I: H-[Hiv]CY[Dap]E[dDab][hSer]WS[Tle]C[Thr(ol)] / II: [Dab]T[Dap][Dab][Dab][dL]L[Dab][Dab]T; disulfide I:2-I:11; amide I:5-II:N; lactam II:4-II:C) | 0.0625 (≈ 0.0263 µM) | 0.125 (≈ 0.0527 µM) | 0.0625 (≈ 0.0263 µM) | 0.125 (≈ 0.0527 µM) | 0.0625 (≈ 0.0263 µM) | 0.125 (≈ 0.0527 µM) | 0.0625 (≈ 0.0263 µM) | 0.0625 (≈ 0.0263 µM) | <1
CC(=O)N[C@H](C(=O)N[C@H]1CSSC[C@@H](C(=O)N[C@@H](CO)C(N)=O)NC(=O)[C@H](C(C)(C)C)NC(=O)[C@H](CO)NC(=O)[C@H](Cc2c[nH]c3ccccc23)NC(=O)[C@H](CO)NC(=O)[C@@H](CCN)NC(=O)[C@H](CCC(=O)N[C@@H](CCN)C(=O)N[C@H](C(=O)N[C@@H](CN)C(=O)N[C@H]2CCNC(=O)[C@H]([C@@H](C)O)NC(=O)[C@H](CCN)NC(=O)[C@H](CCN)NC(=O)[C@H](CC(C)C)NC(=O)[C@@H](CC(C)C)NC(=O)[C@H](CCN)NC2=O)[C@@H](C)O)NC(=O)[C@H](CN)NC(=O)[C@H](Cc2ccc(O)cc2)NC1=O)C(C)C [Ex. 117] (I: Ac-VCY[Dap]E[dDab]SWS[Tle]CS-NH2 / II: [Dab]T[Dap][Dab][Dab][dL]L[Dab][Dab]T; disulfide I:2-I:11; amide I:5-II:N; lactam II:4-II:C) | 0.01562 (≈ 0.00651 µM) | 0.125 (≈ 0.0521 µM) | 0.0625 (≈ 0.0261 µM) | 0.0625 (≈ 0.0261 µM) | 0.0625 (≈ 0.0261 µM) | 0.0625 (≈ 0.0261 µM) | 0.0625 (≈ 0.0261 µM) | 0.01562 (≈ 0.00651 µM) | 2
CCC(=O)N[C@H](C(=O)N[C@H]1CSSC[C@@H](C(=O)N[C@@H](CO)C(N)=O)NC(=O)[C@H](C(C)(C)C)NC(=O)[C@H](CO)NC(=O)[C@H](Cc2c[nH]c3ccccc23)NC(=O)[C@H](CO)NC(=O)[C@@H](CCN)NC(=O)[C@H](CCC(=O)N[C@@H](CCN)C(=O)N[C@H](C(=O)N[C@@H](CN)C(=O)N[C@H]2CCNC(=O)[C@H]([C@@H](C)O)NC(=O)[C@H](CCN)NC(=O)[C@H](CCN)NC(=O)[C@H](CC(C)C)NC(=O)[C@@H](CC(C)C)NC(=O)[C@H](CCN)NC2=O)[C@@H](C)O)NC(=O)[C@H](CN)NC(=O)[C@H](Cc2ccc(O)cc2)NC1=O)C(C)C [Ex. 119] (I: Propionyl-VCY[Dap]E[dDab]SWS[Tle]CS-NH2 / II: [Dab]T[Dap][Dab][Dab][dL]L[Dab][Dab]T; disulfide I:2-I:11; amide I:5-II:N; lactam II:4-II:C) | 0.03125 (≈ 0.013 µM) | 0.125 (≈ 0.0518 µM) | 0.0625 (≈ 0.0259 µM) | 0.0625 (≈ 0.0259 µM) | 0.0625 (≈ 0.0259 µM) | 0.125 (≈ 0.0518 µM) | 0.0625 (≈ 0.0259 µM) | 0.0625 (≈ 0.0259 µM) | <1
